Assay results from US12312319B2, “Isoxazoline compounds, their preparation methods and use” (METISA BIOTECHNOLOGY CO., LTD, priority 2019, dated 2025).

Tests used:
Type in all cases: in vivo
[1] = system: Leucania separata; assay: Insecticidal activity against Leucania separata, Airbrush spraying of corn leaf segments; conditions: Mythimna separata, foliar, 72 h, 3rd instar larvae, 3 days after administration; for mortality at 1.25 µg/mL: 1.25 mg/L; for mortality at 2.5 µg/mL: 2.5 mg/L; for mortality at 5 µg/mL: 5 mg/L; for mortality at 10 µg/mL: 10 mg/L
Description: (§1) The compound to be determined was dissolved in a mixed solvent of acetone/methanol (1:1), followed by dilution with water containing 0.1% (wt) Tween 80 to a desired concentration.
(§2) The activities of the respective compounds against Leucania separata, Plutella xylostella, and Chilo suppressalis were determined by Airbrush spraying method.
(§3) The determination method was as follows: Corn leaves were cut into 2 cm long segments; the pressure of Airbrush spraying was 10 psi (about 0.7 kg/cm^2); both sides of each leaf segment were sprayed with 0.5 mL of the compound solution to be tested. After drying in the shade, ten 3rd instar larvae were inoculated for each treatment, and each treatment was replicated 3 times. After treatment, they were cultured in an observation room at a temperature of 25° C. and a relative humidity of 60-70%, and the number of surviving insects was examined and the mortality was calculated three days after administration.

[2] = system: Plutella xylostella; assay: Insecticidal activity against Plutella xylostella, Airbrush spraying of cabbage leaf discs; conditions: foliar, 72 h, 3rd instar larvae, 3 days after administration; for mortality at 5 µg/mL: 5 mg/L; for mortality at 10 µg/mL: 10 mg/L; for mortality at 2.5 µg/mL: 2.5 mg/L
Description: as §1, §2
as §3, with “Cabbage” for “Corn”, “made” for “cut”, “into leaf discs with a diameter of” for “into”, “by using a hole puncher;” for “long segments;”, “disc” for “segment”

[3] = system: Chilo suppressalis; assay: Insecticidal activity against Chilo suppressalis, spraying of rice seedlings; conditions: 72 h, 3rd instar larvae, 3 days after administration; for mortality at 0.625 µg/mL: 0.625 mg/L; for mortality at 2.5 µg/mL: 2.5 mg/L; for mortality at 10 µg/mL: 10 mg/L
Description: as §1, §2
The determination method was as follows: 1) Preparation of rice seedlings: rice plants were cultivated in a plastic cup with a diameter of 4.5 cm and a height of 4 cm in a thermostatic chamber (temperature 26-28° C., relative humidity 60-80%, illumination 16 hL: 8 hD), and when the rice plants were developed to have 4-5 leaves, strong seedlings with identical growth vigour were selected for chemical treatment, and each treatment was replicated 3 times. 2) Preparation of insects to be tested: Chilo suppressalis, 3rd instar larvae, continuous lab rearing. 3) Inoculation of insects by spraying rice plant stems: The whole rice seedlings were sprayed evenly by using the spraying method, with 15 mL of the compound solution for each treatment. Firstly, the blank control was treated, and then the above procedure was replicated according to the order of test concentration from low to high. After rice seedlings were spray-treated, they were placed in the shade to dry, and the stems about 5 cm from the stem bases were cut off to feed the insects to be tested. Glass culture dishes with a diameter of 90 mm were prepared; each dish was padded with a filter paper at the bottom and added with water to keep moisture; about 5 rice stems were put into each dish and inoculated with 10 larvae, and each culture dish was then sealed with a non-woven and cultured in a thermostatic chamber. The number of residual live insects was examined 3 days after administration.

[4] = system: Tetranychus cinnabarinus; assay: Acaricidal activity against Tetranychus cinnabarinus in greenhouse, bean seedling spraying; conditions: adult mites, 3 days (72 hours) after treatment; for mortality at 0.625 µg/mL: 0.625 mg/L; for mortality at 1.25 µg/mL: 1.25 mg/L; for mortality at 2.5 µg/mL: 2.5 mg/L; for mortality at 5 µg/mL: 5 mg/L
Description: The compounds of the invention were determined for the acaricidal activity in greenhouse. The determination method was as follows:
A bean seedling with two true leaves was taken for inoculating 30-40 adult mites of Tetranychus cinnabarinus. After examining the cardinal number, the whole seedling was treated by spraying with a hand-held sprayer, each treatment being replicated 3 times, and then placed in a standard observation room. The number of surviving mites was examined after 72 hours, and the mortality was calculated.

## CCN1OC[C@@H](N(C(C)=O)C(=O)c2ccc(C3=NOC(c4cc(Cl)cc(Cl)c4)(C(F)(F)F)C3)cc2C)C1=O (mixture of isomers) [Compound 109]
[1]
  mortality at 1.25 µg/mL: 26.7%
  mortality at 2.5 µg/mL: 63.3%
  mortality at 5 µg/mL: 83.3%
  mortality at 10 µg/mL: 100%
[2]
  mortality at 5 µg/mL: 70%
  mortality at 10 µg/mL: 100%
[3]
  mortality at 0.625 µg/mL: 80%
  mortality at 2.5 µg/mL: 100%
  mortality at 10 µg/mL: 100%
[4]
  mortality at 0.625 µg/mL: 16.7%
  mortality at 1.25 µg/mL: 70%
  mortality at 2.5 µg/mL: 100%
  mortality at 5 µg/mL: 100%

## CCN1OC[C@@H](N(C(=O)c2ccc(C3=NOC(c4cc(Cl)cc(Cl)c4)(C(F)(F)F)C3)cc2C)C(=O)C2CC2)C1=O (mixture of isomers) [Compound 112]
[1]
  mortality at 1.25 µg/mL: 80%
  mortality at 2.5 µg/mL: 96.7%
  mortality at 5 µg/mL: 100%
  mortality at 10 µg/mL: 100%
[2]
  mortality at 5 µg/mL: 70%
  mortality at 10 µg/mL: 100%
[3]
  mortality at 0.625 µg/mL: 96.7%
  mortality at 2.5 µg/mL: 100%
  mortality at 10 µg/mL: 100%
[4]
  mortality at 0.625 µg/mL: 96.7%
  mortality at 1.25 µg/mL: 100%
  mortality at 2.5 µg/mL: 100%
  mortality at 5 µg/mL: 100%

## CCN1OC[C@@H](N(C(=O)COC)C(=O)c2ccc(C3=NOC(c4cc(Cl)cc(Cl)c4)(C(F)(F)F)C3)cc2C)C1=O (mixture of isomers) [Compound 113]
[1]
  mortality at 1.25 µg/mL: 100%
  mortality at 2.5 µg/mL: 100%
  mortality at 5 µg/mL: 100%
  mortality at 10 µg/mL: 100%
[2]
  mortality at 2.5 µg/mL: 66.7%
  mortality at 5 µg/mL: 90%
  mortality at 10 µg/mL: 100%
[3]
  mortality at 0.625 µg/mL: 86.7%
  mortality at 2.5 µg/mL: 100%
  mortality at 10 µg/mL: 100%
[4]
  mortality at 0.625 µg/mL: 100%
  mortality at 1.25 µg/mL: 100%
  mortality at 2.5 µg/mL: 100%
  mortality at 5 µg/mL: 100%

## CCOCC(=O)N(C(=O)c1ccc(C2=NOC(c3cc(Cl)cc(Cl)c3)(C(F)(F)F)C2)cc1C)[C@@H]1CON(CC)C1=O (mixture of isomers) [Compound 114]
[1]
  mortality at 1.25 µg/mL: 100%
  mortality at 2.5 µg/mL: 100%
  mortality at 5 µg/mL: 100%
  mortality at 10 µg/mL: 100%
[2]
  mortality at 2.5 µg/mL: 60%
  mortality at 5 µg/mL: 86.7%
  mortality at 10 µg/mL: 100%
[3]
  mortality at 0.625 µg/mL: 83.3%
  mortality at 2.5 µg/mL: 100%
  mortality at 10 µg/mL: 100%
[4]
  mortality at 0.625 µg/mL: 100%
  mortality at 1.25 µg/mL: 100%
  mortality at 2.5 µg/mL: 100%
  mortality at 5 µg/mL: 100%

## CCN1OC[C@@H](N(C(=O)c2ccc(C3=NOC(c4cc(Cl)c(F)c(Cl)c4)(C(F)(F)F)C3)cc2C)C(=O)C2CC2)C1=O (mixture of isomers) [Compound 120]
[1]
  mortality at 1.25 µg/mL: 100%
  mortality at 2.5 µg/mL: 100%
  mortality at 5 µg/mL: 100%
  mortality at 10 µg/mL: 100%
[2]
  mortality at 2.5 µg/mL: 83.3%
  mortality at 5 µg/mL: 100%
  mortality at 10 µg/mL: 100%
[3]
  mortality at 0.625 µg/mL: 96.7%
  mortality at 2.5 µg/mL: 100%
  mortality at 10 µg/mL: 100%
[4]
  mortality at 0.625 µg/mL: 100%
  mortality at 1.25 µg/mL: 100%
  mortality at 2.5 µg/mL: 100%
  mortality at 5 µg/mL: 100%

## CCN1OC[C@@H](N(C(=O)COC)C(=O)c2ccc(C3=NOC(c4cc(Cl)c(F)c(Cl)c4)(C(F)(F)F)C3)cc2C)C1=O (mixture of isomers) [Compound 121]
[1]
  mortality at 1.25 µg/mL: 100%
  mortality at 2.5 µg/mL: 100%
  mortality at 5 µg/mL: 100%
  mortality at 10 µg/mL: 100%
[2]
  mortality at 2.5 µg/mL: 86.7%
  mortality at 5 µg/mL: 100%
  mortality at 10 µg/mL: 100%
[3]
  mortality at 0.625 µg/mL: 90%
  mortality at 2.5 µg/mL: 100%
  mortality at 10 µg/mL: 100%
[4]
  mortality at 0.625 µg/mL: 100%
  mortality at 1.25 µg/mL: 100%
  mortality at 2.5 µg/mL: 100%
  mortality at 5 µg/mL: 100%

## CCOCC(=O)N(C(=O)c1ccc(C2=NOC(c3cc(Cl)c(F)c(Cl)c3)(C(F)(F)F)C2)cc1C)[C@@H]1CON(CC)C1=O (mixture of isomers) [Compound 122]
[1]
  mortality at 1.25 µg/mL: 100%
  mortality at 2.5 µg/mL: 100%
  mortality at 5 µg/mL: 100%
  mortality at 10 µg/mL: 100%
[2]
  mortality at 2.5 µg/mL: 70%
  mortality at 5 µg/mL: 100%
  mortality at 10 µg/mL: 100%
[3]
  mortality at 0.625 µg/mL: 93.3%
  mortality at 2.5 µg/mL: 100%
  mortality at 10 µg/mL: 100%
[4]
  mortality at 0.625 µg/mL: 100%
  mortality at 1.25 µg/mL: 100%
  mortality at 2.5 µg/mL: 100%
  mortality at 5 µg/mL: 100%

## CCN1OC[C@@H](N(C(=O)OC)C(=O)c2ccc(C3=NOC(c4cc(Cl)cc(Cl)c4)(C(F)(F)F)C3)cc2C)C1=O (stereo partly shown) [Comparative compound, reference compound]
[1]
  mortality at 1.25 µg/mL: 0%
  mortality at 2.5 µg/mL: 0%
  mortality at 5 µg/mL: 13.3%
  mortality at 10 µg/mL: 73.3%
[2]
  mortality at 2.5 µg/mL: 0%
  mortality at 5 µg/mL: 30%
  mortality at 10 µg/mL: 76.7%
[3]
  mortality at 0.625 µg/mL: 0%
  mortality at 2.5 µg/mL: 0%
  mortality at 10 µg/mL: 16.7%
[4]
  mortality at 1.25 µg/mL: 20%
  mortality at 2.5 µg/mL: 73.3%
  mortality at 5 µg/mL: 100%
